25 molecules from US20250270213A1, “PI3Ka INHIBITORS” (Synnovation Therapeutics, Inc., priority 2022, published 2025) can be followed below.

For the experiment, the system named is T47D (PIK3CA H1047R) cells. Briefly: pS473 AKT assay with 2.5% FBS, T47D cells. It is filed as cell-based. As to conditions: pSer473 AKT, DMEM with 2.5% FBS, 2 h treatment, read-out: T47D_IC50. The gist of the method: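 In-cell chemiluminescent ELISA of AKT Ser473 phosphorylation, using anti-pSer473 primary and HRP secondary antibodies on fixed cells. T47D (PIK3CA H1047R) cells had 2 h of compound treatment in DMEM containing 2.5% FBS; IC50 derived from dose-response.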

Where two headings read alike, the source gives them in different places.

Take `[2H]C([2H])([2H])n1c(=O)c2cc(C)cc(C(C)Nc3ccc(Cl)nc3-c3noc(=O)[nH]3)c2c2cnn(CC)c21` (stereo not shown) [Example 227, 3-(6-Chloro-3-((1-(3-ethyl-7-methyl-4-(methyl-d3)-5-oxo-4,5-dihydro-3H-pyrazolo[3,4-c]isoquinolin-9-yl)ethyl)amino)pyridin-2-yl)-1,2,4-oxadiazol-5(4H)-one]: the IC50 (Homo sapiens) was under 1000 nM. On the same count and under the same terms, the result for `CCn1ncc2c3c(C(C)Nc4ccc(Cl)nc4-c4ncn(C)n4)cc(C)cc3c(=O)n(C)c21` (stereo not shown) [Example 228, 9-(1-((6-chloro-2-(1-methyl-1H-1,2,4-triazol-3-yl)pyridin-3-yl)amino)ethyl)-3-ethyl-4,7-dimethyl-3,4-dihydro-5H-pyrazolo[3,4-c]isoquinolin-5-one] reads under 1000 nM.

As to `CCn1ncc2c3c(C(C)Nc4ccc(Cl)nc4-c4nncn4C)cc(C)cc3c(=O)n(C)c21` (stereo not shown) [Example 229, 9-(1-((6-chloro-2-(4-methyl-1H-1,2,4-triazol-3-yl)pyridin-3-yl)amino)ethyl)-3-ethyl-4,7-dimethyl-3,4-dihydro-5H-pyrazolo[3,4-c]isoquinolin-5-one], the IC50 (Homo sapiens) is under 1000 nM.

As to `CCn1ncc2c3c(C(C)Nc4ccc(Cl)nc4-c4nnn[nH]4)cc(C)cc3c(=O)n(C)c21` (stereo not shown) [Example 230, 9-(1-((6-chloro-2-(1H-tetrazol-5-yl)pyridin-3-yl)amino)ethyl)-3-ethyl-4,7-dimethyl-3,4-dihydro-5H-pyrazolo[3,4-c]isoquinolin-5-one], under “Homo sapiens”, the IC50 is under 1000 nM. On the same count and under the same terms, the result for `CCn1ncc2c3c(C(C)Nc4ccc(Cl)nc4-c4cnnn4C)cc(C)cc3c(=O)n(C)c21` (stereo not shown) [Example 231, 9-(1-((6-chloro-2-(1-methyl-1H-1,2,3-triazol-5-yl)pyridin-3-yl)amino)ethyl)-3-ethyl-4,7-dimethyl-3,4-dihydro-5H-pyrazolo[3,4-c]isoquinolin-5-one] reads under 1000 nM. In the case of `CCn1ncc2c3c(C(C)Nc4ccc(Cl)nc4-c4ccc(C(=O)O)cc4)cc(C)cc3c(=O)n(C)c21` (stereo not shown) [Example 232, 4-(6-chloro-3-((1-(3-ethyl-4,7-dimethyl-5-oxo-4,5-dihydro-3H-pyrazolo[3,4-c]isoquinolin-9-yl)ethyl)amino)pyridin-2-yl)benzoic acid], the IC50 was under 1000 nM. In the case of `CCn1ncc2c3c(C(C)Nc4ccc(Cl)nc4-c4cnn(C5CCN(C(=O)N(C)C)CC5)c4)cc(C)cc3c(=O)n(C)c21` (stereo not shown) [Example 233, 4-(4-(6-chloro-3-((1-(3-ethyl-4,7-dimethyl-5-oxo-4,5-dihydro-3H-pyrazolo[3,4-c]isoquinolin-9-yl)ethyl)amino)pyridin-2-yl)-1H-pyrazol-1-yl)-N,N-dimethylpiperidine-1-carboxamide], the IC50 (Homo sapiens) was under 1000 nM.

Take `CCn1ncc2c3c(C(C)Nc4ccc(Cl)nc4-c4cnn(C5CCN(CCC#N)CC5)c4)cc(C)cc3c(=O)n(C)c21` (stereo not shown) [Example 234, 3-(4-(4-(6-chloro-3-((1-(3-ethyl-4,7-dimethyl-5-oxo-4,5-dihydro-3H-pyrazolo[3,4-c]isoquinolin-9-yl)ethyl)amino)pyridin-2-yl)-1H-pyrazol-1-yl)piperidin-1-yl)propanenitrile]: the IC50 (Homo sapiens) was under 1000 nM. On the same count and under the same terms, the value for `CCn1ncc2c3c(C(C)Nc4ccc(C)nc4-c4c[nH]nc4C)cc(C)cc3c(=O)n(C)c21` (stereo not shown) [Example 235, 3-ethyl-4,7-dimethyl-9-(1-((6-methyl-2-(3-methyl-1H-pyrazol-4-yl)pyridin-3-yl)amino)ethyl)-3,4-dihydro-5H-pyrazolo[3,4-c]isoquinolin-5-one] was under 1000 nM; that for `CCn1ncc2c3c(C(C)Nc4ccc(Cl)nc4-c4ncn(C)n4)cc(C)cc3c(=O)n(CC(F)F)c21` (stereo not shown) [Example 236, 9-(1-((6-chloro-2-(1-methyl-1H-1,2,4-triazol-3-yl)pyridin-3-yl)amino)ethyl)-4-(2,2-difluoroethyl)-3-ethyl-7-methyl-3,4-dihydro-5H-pyrazolo[3,4-c]isoquinolin-5-one] was under 1000 nM; that for `CCn1ncc2c3c(C(C)Nc4ccc(Cl)nc4-c4ccnc(C)c4)cc(C)cc3c(=O)n(CC(F)F)c21` (stereo not shown) [Example 237, 9-(1-((6-chloro-2′-methyl-[2,4′-bipyridin]-3-yl)amino)ethyl)-4-(2,2-difluoroethyl)-3-ethyl-7-methyl-3,4-dihydro-5H-pyrazolo[3,4-c]isoquinolin-5-one] was under 1000 nM. On the same count and under the same terms, the result for `CCn1ncc2c3c(C(C)Nc4ccc(Cl)nc4-c4cncnc4)cc(C)cc3c(=O)n(CC(F)F)c21` (stereo not shown) [Example 238, 9-(1-((6-chloro-2-(pyrimidin-5-yl)pyridin-3-yl)amino)ethyl)-4-(2,2-difluoroethyl)-3-ethyl-7-methyl-3,4-dihydro-5H-pyrazolo[3,4-c]isoquinolin-5-one] reads under 1000 nM.

Turning to `CCn1ncc2c3c(C(C)Nc4ccc(Cl)nc4-c4ccc(=O)n(C)c4)cc(C)cc3c(=O)n(CC(F)F)c21` (stereo not shown) [Example 239, 9-(1-((6-chloro-1′-methyl-6′-oxo-1′,6′-dihydro-[2,3′-bipyridin]-3-yl)amino)ethyl)-4-(2,2-difluoroethyl)-3-ethyl-7-methyl-3,4-dihydro-5H-pyrazolo[3,4-c]isoquinolin-5-one], for the setting “Homo sapiens”, the IC50 was under 1000 nM. Take `CCn1ncc2c3c(C(C)Nc4ccc(Cl)nc4-c4ccc(C(=O)NC)nc4)cc(C)cc3c(=O)n(CC(F)F)c21` (stereo not shown) [Example 240, 6-chloro-3-((1-(4-(2,2-difluoroethyl)-3-ethyl-7-methyl-5-oxo-4,5-dihydro-3H-pyrazolo[3,4-c]isoquinolin-9-yl)ethyl)amino)-N-methyl-[2,3′-bipyridine]-6′-carboxamide]: under “Homo sapiens”, the IC50 was under 1000 nM. On the same count and under the same terms, the value for `CCn1ncc2c3c(C(C)Nc4ccc(Cl)nc4C4CCN(C(C)=O)CC4)cc(C)cc3c(=O)n(C)c21` (stereo not shown) [Example 241, 9-[1-[[2-(1-Acetyl-4-piperidyl)-6-chloro-3-pyridyl]amino]ethyl]-3-ethyl-4,7-dimethyl-pyrazolo[3,4-c]isoquinolin-5-one] was under 1000 nM; that for `Cc1cc(C(C)Nc2ccc(Cl)nc2-c2ncn(C)n2)c2c(c1)c(=O)n(C)c1c2cnn1CCO` (stereo not shown) [Example 242, 9-(1-((6-Chloro-2-(1-methyl-1H-1,2,4-triazol-3-yl)pyridin-3-yl)amino)ethyl)-3-(2-hydroxyethyl)-4,7-dimethyl-3,4-dihydro-5H-pyrazolo[3,4-c]isoquinolin-5-one] was under 1000 nM; that for `CNC(=O)c1ccc(-c2nc(Cl)ccc2NC(C)c2cc(C)cc3c(=O)n(C)c4c(cnn4CCO)c23)cc1F` (stereo not shown) [Example 243, 4-(6-chloro-3-((1-(3-(2-hydroxyethyl)-4,7-dimethyl-5-oxo-4,5-dihydro-3H-pyrazolo[3,4-c]isoquinolin-9-yl)ethyl)amino)pyridin-2-yl)-2-fluoro-N-methylbenzamide] was under 1000 nM. Same read-out and setting: the value for `Cc1cc(C(C)Nc2ccc(Cl)nc2-c2cnn(C)c2)c2c(c1)c(=O)n(C)c1c2cnn1CCO` (stereo not shown) [Example 244, 9-(1-((6-chloro-2-(1-methyl-1H-pyrazol-4-yl)pyridin-3-yl)amino)ethyl)-3-(2-hydroxyethyl)-4,7-dimethyl-3,4-dihydro-5H-pyrazolo[3,4-c]isoquinolin-5-one] was under 1000 nM. On to `Cc1cc(C(C)Nc2ccc(Cl)nc2N2CCC(O)CC2)c2c(c1)c(=O)n(C)c1c2cnn1CCO` (stereo not shown) [Example 245, 9-(1-((6-chloro-2-(4-hydroxypiperidin-1-yl)pyridin-3-yl)amino)ethyl)-3-(2-hydroxyethyl)-4,7-dimethyl-3,4-dihydro-5H-pyrazolo[3,4-c]isoquinolin-5-one], for which the IC50 (Homo sapiens) is under 1000 nM. Consider `Cc1cc(C(C)Nc2ccc(Cl)nc2-c2ccc3ncccc3c2)c2c(c1)c(=O)n(C)c1c2cnn1CCO` (stereo not shown) [Example 246, 9-(1-((6-chloro-2-(quinolin-6-yl)pyridin-3-yl)amino)ethyl)-3-(2-hydroxyethyl)-4,7-dimethyl-3,4-dihydro-5H-pyrazolo[3,4-c]isoquinolin-5-one], for which the IC50 (Homo sapiens) is under 1000 nM.

For `Cc1cc(C(C)Nc2ccc(Cl)nc2-c2ccc3c(cnn3C)c2)c2c(c1)c(=O)n(C)c1c2cnn1CCO` (stereo not shown) [Example 247, 9-(1-((6-chloro-2-(1-methyl-1H-indazol-5-yl)pyridin-3-yl)amino)ethyl)-3-(2-hydroxyethyl)-4,7-dimethyl-3,4-dihydro-5H-pyrazolo[3,4-c]isoquinolin-5-one], the IC50 (Homo sapiens) is under 1000 nM. The same measure, in the same setting: the value for `Cc1cc(C(C)Nc2ccc(Cl)nc2-c2ccc3c(c2)CN(C)C3=O)c2c(c1)c(=O)n(C)c1c2cnn1CCO` (stereo not shown) [Example 248, 9-(1-((6-chloro-2-(2-methyl-1-oxoisoindolin-5-yl)pyridin-3-yl)amino)ethyl)-3-(2-hydroxyethyl)-4,7-dimethyl-3,4-dihydro-5H-pyrazolo[3,4-c]isoquinolin-5-one] was under 1000 nM; that for `Cc1cc(C(C)Nc2ccc(C)nc2-c2cnn(C)c2)c2c(c1)c(=O)n(C)c1c2cnn1CCO` (stereo not shown) [Example 249, 3-(2-hydroxyethyl)-4,7-dimethyl-9-(1-((6-methyl-2-(1-methyl-1H-pyrazol-4-yl)pyridin-3-yl)amino)ethyl)-3,4-dihydro-5H-pyrazolo[3,4-c]isoquinolin-5-one] was under 1000 nM. For the molecule `Cc1cc(C(C)Nc2ccc(Cl)nc2-c2nnco2)c2c(c1)c(=O)n(C)c1c2cnn1CCO` (stereo not shown) [Example 250, 9-(1-((6-chloro-2-(1,3,4-oxadiazol-2-yl)pyridin-3-yl)amino)ethyl)-3-(2-hydroxyethyl)-4,7-dimethyl-3,4-dihydro-5H-pyrazolo[3,4-c]isoquinolin-5-one], where the note is “Homo sapiens”, the IC50 is under 1000 nM. Same read-out and setting: the result for `Cc1cc(C(C)Nc2ccc(Cl)nc2-c2nnn(C)n2)c2c(c1)c(=O)n(C)c1c2cnn1CCO` (stereo not shown) [Example 251, 9-(1-((6-chloro-2-(2-methyl-2H-tetrazol-5-yl)pyridin-3-yl)amino)ethyl)-3-(2-hydroxyethyl)-4,7-dimethyl-3,4-dihydro-5H-pyrazolo[3,4-c]isoquinolin-5-one] reads under 1000 nM.
